The values below come from patent US20220211684A1, “ANTIFUNGAL AGENTS FOR CANDIDA AURIS DECOLONIZATION” (Scynexis, Inc., priority 2019, published 2022).

Data set [1] in a line: clinical. Also on record: species or system humans. The conditions noted are these: human, in vivo, po. An excerpt:
Print 2019 February PMID: 30478166). Such features are important for the treatment and prevention of fungal infections, as well as for achieving decolonization of susceptible fungal pathogens such as Candida auris.

Data set [2] has as its system Candida auris. The data set can be described thus: Guinea pig model of Candida auris skin infection, skin burden. The data set is classed as in vivo, Guinea pigs. The protocol: (§1) Guinea pigs (n=5 per group) were randomized to receive 10 or 20 or 30 mg/kg of ibrexafungerp twice daily (BID) by gavage, or vehicle control. Animals received a single dose of prednisolone at 30 mg/kg, subcutaneously, one day prior and one and three days post infection to favor immuno-compromise of the animals and facilitate the development of Candida auris skin infection. A 100 μl cell suspension containing 10^8 blastospores of Candida auris was applied to an abraded area on the back of the animals. At Day 7, tissue biopsies were examined histologically, and tissue fungal burden was analyzed by colony counts from skin samples. PK bioanalysis of ibrexafungerp plasma concentrations was conducted following the final dose (Day 7).

Data set [3] relates to Candida auris. The conditions noted are these: 100 isolates of Candida auris; cited from earlier work.
Data set [4] concerns Candida spp. The conditions noted are these: previous animal models of systemic Candida spp. infection; cited from earlier work.
The test system of data set [5] is Candida auris. The data set can be described thus: MIC50 against 102 Candida auris clinical and surveillance isolates from an outbreak in New York. The data set is classed as cell-based. The conditions noted are these: 97 isolates with variable or multidrug resistance; for MIC50: Candidozyma auris. An excerpt:
Low MIC50 values for ibrexafungerp were found for 102 Candida auris clinical and surveillance isolates from an outbreak in New York. The isolates included C. auris with a variable resistance to antifungal drugs (resistance to one drug in one or two classes of antifungal drugs), multidrug-resistant isolates (resistance to two or more drugs between two classes of antifungal drugs), and pan-resistant isolates (resistance to two or more azoles, all tested echinocandins, and amphotericin B). For the 97 isolates that had variable or multidrug resistance to the other tested antifungal drugs (including fluconazole, voriconazole, itraconazole, isavuconazole, posaconazole, anidulafungin, caspofungin, micafungin, amphotericin B, and flucytosine), the ibrexafungerp MIC50 range was 0.06-0.5 μg/ml; the median and mode for ibrexafungerp MIC50 were each 0.5 μg/ml.

The nature of data set [6]: in vivo. The arrangement: species or system Guinea pigs. Particulars: guinea pig, po, 10 mg/kg. As for the experimental part: as §1

≈ marks a conversion by molar mass, not a printed value. Like-named read-outs stand apart in the source and are kept apart here.

For `CC(C)[C@@H](C)[C@@]1(C)CC[C@]2(C)[C@H]3CC[C@@H]4[C@@]5(COC[C@@]4(C)[C@@H](OC[C@](C)(N)C(C)(C)C)[C@H](n4ncnc4-c4ccncc4)C5)C3=CC[C@@]2(C)[C@@H]1C(=O)O` [ibrexafungerp, (1S,4aR,6aS,7R,8R,10aR,10bR,12aR,14R,15R)-15-[[(2R)-2-amino-2,3,3-trimethylbutyl]oxy]-8-[(1R)-1,2-dimethylpropyl]-14[5-(4-pyridinyl)-1H-1,2,4-triazol-1-yl]-1,6,6a,7,8,9,10,10a,10b,11,12,12a-dodecahydro-1,6a,8,10a-tetramethyl-4H-1,4a-propano-2H-phenanthro[1,2-c]pyran-7-carboxylic acid], the bioavailability in data set [1] is more than 20%. In addition, in data set [2] (10, 20 or 30 mg/kg BID by gavage, Day 7, versus vehicle control), the “Tissue burdens of Candida auris (skin, colony counts)” value is “lower in all treatment groups versus in the vehicle control group”. Moreover, the “fungal elements in biopsy samples (histology)” value in data set [2] (Day 7 tissue biopsies, versus untreated control) was “No fungal elements were observed”. The “clinical scores (crusting, inflammation)” value in data set [2] (among the active treatment groups) is “no significant differences”. Further, in data set [3], the MIC50 is 0.5 micrograms/ml, the MIC90 is 1 micrograms/ml and the MIC overall mode was 1 micrograms/ml. Moreover, the “exposures needed to achieve efficacy” value in data set [4] was approximately 11.2 µg·h/mL. In data set [5], this compound had an MIC50 range of 0.06 to 0.5 µg/mL. Also, the MIC50 in data set [5] (read-out: MIC50 median) amounted to 0.5 µg/mL (≈ 0.685 µM). Further, the MIC50 in data set [5] (read-out: MIC50 mode) turned out to be 0.5 µg/mL (≈ 0.685 µM). For the same compound, the exposure AUC(0-t) in data set [6] stood at 2800 ng·h/mL.
